Reference: patent US9409952B2, “Peptide-compound cyclization method” (Chugai Seiyaku Kabushiki Kaisha, priority 2011, dated 2016)
Where two headings read alike, the source gives them in different places. Starred links: 1 amine or outer side, 2 acyl side, 3 side chain; linkers in the order of their positions; H or OH if unused. Positions of bridges follow the written chain, without caps; N, C: chain ends. Non-standard residues stand in square brackets, D forms with d. Residues, ends and D or L forms follow the SMILES beside them. ξ: configuration not given here. *: point of attachment. Phe(4-(CH2)5CO) = O=C([C@H](Cc1ccc(CCCCCC(=O)[*:3])cc1)N[*:1])[*:2]; Phe(3-(CH2)4CO) = O=C([C@H](Cc1cccc(CCCCC(=O)[*:3])c1)N[*:1])[*:2]; NMeF = CN[C@@H](Cc1ccccc1)C(=O)O; NMeGABA = CN(CCCC(=O)[*:2])[*:1]; NMeI = CC[C@H](C)[C@H](NC)C(=O)O; NMeβAla = CN(CCC(=O)[*:2])[*:1]; NMeL = CN[C@@H](CC(C)C)C(=O)O; NMeV = CN[C@H](C(=O)O)C(C)C; NMeS = CN[C@@H](CO)C(=O)O; NMeA = CN[C@@H](C)C(=O)O; Piperidide = C1CCN(*)CC1; dNMeA = CN[C@H](C)C(=O)O; β3hA = C[C@H](N)CC(=O)O; ξD = NC(CC(=O)O)C(=O)O; ξT = CC(O)C(N)C(=O)O; Sar = CNCC(=O)O; tBu = CC(C)(C)*

Experiments:
[1] = PAMPA (parallel artificial membrane permeability assay); type: in vitro ADME; settings: PAMPA
How it was run: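 Artificial membrane was 10% (w/v) egg lecithin plus 0.5% (w/v) cholesterol in dodecane on a PVDF filter. A 10 mM DMSO stock was added at 0.5% (v/v) to donor buffer (50 mM MOPSO, pH 6.5, 5.0% glycocholic acid). After 18 h at 37 °C, LC/MS or LC/UV gave donor and acceptor levels for Pe.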

[2] = Metabolic stability in human hepatic microsome; type: in vitro ADME; settings: microsomes
[3] = membrane permeation rate (Pe), 50 mM MOPSO buffer pH 6.5 with 5.0% glycocholic acid, 37° C., 18 hours, read-out: iPAMPA Pe
[4] = pH 7.4, human hepatic microsome, NADPH(+), read-out: CL NADPH(+)

SMILES | Papp at 18 hours, 50 µM [1, 3] | microsomal CLint at 1 uM [2, 4] | Papp at 18 hours, 50 µM ([1]; pH 6.5) | microsomal CLint at 1 uM ([2]; human, pH 7.4, CL NADPH(+))
CC[C@H](C)[C@@H]1NC(=O)[C@H](CC(C)C)N(C)C(=O)CN(C)C(=O)[C@H]([C@@H](C)O)NC(=O)[C@H](C)N(C)C(=O)C[C@@H](C(=O)N(C)[C@@H](Cc2ccccc2)C(=O)N(C)[C@@H](C)C(=O)N[C@H](C(=O)N[C@@H](C)C(=O)N2CCCCC2)C(C)C)NC(=O)[C@H](CC(C)C)N(C)C(=O)[C@H](Cc2ccccc2)N(C)C(=O)[C@H](CC(C)C)N(C)C1=O [DP-660] ([NMeA]T[Sar][NMeL]I[NMeL][NMeF][NMeL]D[NMeF][NMeA]VA-Piperidide; lactam N-9) | 27 ×10⁻⁶ cm/s | 222 µL/min/mg | – | –
CC(C)C[C@@H]1NC(=O)[C@H](CO)N(C)C(=O)[C@H](CC(C)C)N(C)C(=O)[C@H](CC(C)C)N(C)C(=O)[C@H](CC(C)C)N(C)C(=O)[C@@H](C)NC(=O)C[C@H](C)NC(=O)[C@H](CC(C)C)N(C)C(=O)[C@H](CC(C)C)NC(=O)[C@H](CC(C)C)N(C)C(=O)CN(C)C1=O [DP-639] (cyclo(L[NMeL][β3hA][dA][NMeL][NMeL][NMeL][NMeS]L[Sar][NMeL])) | 33 ×10⁻⁶ cm/s | 134 µL/min/mg | – | –
CC[C@H](C)[C@H]1C(=O)N[C@@H](COC(C)(C)C)C(=O)N(C)[C@@H](C(C)C)C(=O)N[C@@H](C)CC(=O)N(C)[C@@H](C)C(=O)N(C)[C@@H](Cc2ccccc2)C(=O)N[C@@H](CC(C)C)C(=O)N(C)[C@@H](CC(C)C)C(=O)N[C@@H]([C@@H](C)O)C(=O)N(C)CC(=O)N1C [DP-820] (cyclo(L[NMeL]T[Sar][NMeI]S(tBu)[NMeV][β3hA][NMeA][NMeF])) | 48 ×10⁻⁶ cm/s | 511 µL/min/mg | – | –
CC(C)C[C@@H]1NC(=O)[C@H](Cc2ccccc2)N(C)C(=O)[C@H](C(C)C)N(C)C(=O)CN(C)C(=O)[C@H]([C@@H](C)O)NC(=O)[C@H](Cc2ccccc2)N(C)C(=O)[C@H](CC(C)C)N(C)C(=O)[C@H](CC(C)C)N(C)C(=O)[C@H](C)NC(=O)[C@@H](C(C)C)NC(=O)C[C@@H](C(=O)N(C)[C@@H](Cc2ccccc2)C(=O)N[C@@H](C)C(=O)N2CCCCC2)NC1=O [DP-484] ([dV]A[NMeL][NMeL][NMeF]T[Sar][NMeV][NMeF]LD[NMeF]A-Piperidide; lactam N-11) | 13 ×10⁻⁶ cm/s | 29 µL/min/mg | – | –
CC(C)C[C@@H]1NC(=O)CCCCCc2ccc(cc2)C[C@@H](C(=O)N2CCCCC2)NC(=O)[C@H](Cc2ccccc2)N(C)C(=O)[C@H](CC(C)C)N(C)C(=O)CN(C)C(=O)[C@H]([C@@H](C)O)NC(=O)[C@H](C)N(C)C(=O)[C@H](C(C)C)N(C)C(=O)[C@H](C)NC(=O)[C@H](CC(C)C)N(C)C(=O)[C@H](Cc2ccccc2)N(C)C1=O [DP-881] (L[NMeF][NMeL]A[NMeV][NMeA]T[Sar][NMeL][NMeF][Phe(4-(CH2)5CO)]-Piperidide; lactam N-11) | 6.8 ×10⁻⁶ cm/s | 83 µL/min/mg | – | –
CC[C@H](C)[C@@H]1NC(=O)[C@H](CC(C)C)N(C)C(=O)[C@H](Cc2ccccc2)N(C)C(=O)[C@H](Cc2ccccc2)NC(=O)[C@H](C)N(C)C(=O)[C@H](CC(C)C)N(C)C(=O)[C@@H](C(C)C)NC(=O)C[C@@H](C(=O)N(C)[C@@H](CC(C)C)C(=O)N[C@H](C(=O)N(C)[C@@H](C)C(=O)N[C@H](C(=O)N2CCCCC2)[C@@H](C)CC)C(C)C)NC(=O)[C@H](CC(C)C)NC(=O)[C@H]([C@@H](C)O)NC1=O [DP-947] ([dV][NMeL][NMeA]F[NMeF][NMeL]ITLD[NMeL]V[NMeA]I-Piperidide; lactam N-10) | 0.1 ×10⁻⁶ cm/s | 14 µL/min/mg | – | –
CC[C@H](C)[C@H]1C(=O)NCC(=O)N(C)[C@@H](C)C(=O)N[C@@H](CC(C)C)C(=O)N[C@@H](C)CC(=O)N(C)[C@@H](C)C(=O)N[C@@H](CC(C)C)C(=O)N(C)[C@@H](C)C(=O)N[C@@H]([C@@H](C)O)C(=O)N2CCC[C@H]2C(=O)N1C [DP-827] (cyclo(G[NMeA]L[β3hA][NMeA]L[NMeA]TP[NMeI])) | – | – | 5.8 ×10⁻⁶ cm/s | 49 µL/min/mg
CC(C)C[C@@H]1NC(=O)[C@@H](C(C)C)NC(=O)C[C@@H](C(=O)N2CCCCC2)NC(=O)[C@H](Cc2ccccc2)NC(=O)[C@H](CC(C)C)N(C)C(=O)[C@H](Cc2ccccc2)N(C)C(=O)[C@H](C)N(C)C(=O)[C@H]([C@@H](C)O)NC1=O [DP-702] ([dV]LT[NMeA][NMeF][NMeL]FD-Piperidide; lactam N-8) | 25 ×10⁻⁶ cm/s | 123 µL/min/mg | – | –
CC(C)C[C@H]1C(=O)N[C@@H](C(C)C)C(=O)N[C@H](C(=O)N(C)[C@@H](Cc2ccccc2)C(=O)N[C@@H](C)C(=O)N2CCCCC2)CC(=O)N[C@@H](C)C(=O)N(C)[C@@H](Cc2ccccc2)C(=O)N(C)[C@@H](C)C(=O)N(C)[C@@H](CC(C)C)C(=O)N[C@@H]([C@@H](C)O)C(=O)N(C)CC(=O)N1C [DP-196] (A[NMeF][NMeA][NMeL]T[Sar][NMeL]VD[NMeF]A-Piperidide; lactam N-9) | 29 ×10⁻⁶ cm/s | 65 µL/min/mg | – | –
CC[C@H](C)[C@@H]1NC(=O)[C@H](Cc2ccccc2)NC(=O)[C@@H]2CCCN2C(=O)[C@H](CC(C)C)N(C)C(=O)[C@H](Cc2ccccc2)NC(=O)[C@H](CC(C)C)NC(=O)[C@H]([C@@H](C)O)NC(=O)[C@H](C)N(C)C(=O)[C@H](C(C)C)NC(=O)CCCCc2cccc(c2)C[C@@H](C(=O)N2CCCCC2)NC(=O)[C@H](CC(C)C)NC(=O)CN(C)C1=O [DP-900] (V[NMeA]TLF[NMeL]PFI[Sar]L[Phe(3-(CH2)4CO)]-Piperidide; lactam N-12) | 1.3 ×10⁻⁶ cm/s | 244 µL/min/mg | – | –
CC(C)C[C@H]1C(=O)N[C@@H]([C@@H](C)O)C(=O)NCC(=O)N[C@@H](C(C)C)C(=O)N[C@H](C(=O)N(C)[C@@H](Cc2ccccc2)C(=O)N[C@@H](C)C(=O)N2CCCCC2)CC(=O)N(C)[C@H](C)C(=O)N(C)[C@@H](C(C)C)C(=O)N[C@@H](Cc2ccccc2)C(=O)N(C)[C@@H](Cc2ccccc2)C(=O)N(C)[C@@H](C)C(=O)N1C [DP-356] ([dNMeA][NMeV]F[NMeF][NMeA][NMeL]TGVD[NMeF]A-Piperidide; lactam N-10) | 34 ×10⁻⁶ cm/s | 66 µL/min/mg | – | –
CC[C@H](C)[C@H](NC(=O)[C@H](Cc1ccccc1)N(C)C(=O)[C@H](Cc1ccccc1)N(C)C(=O)[C@@H]1CC(=O)N(C)CCC(=O)N[C@@H]([C@@H](C)CC)C(=O)N(C)[C@@H](Cc2ccccc2)C(=O)N(C)[C@@H](CC(C)C)C(=O)N[C@@H]([C@@H](C)O)C(=O)N(C)CC(=O)N(C)[C@@H](CC(C)C)C(=O)N[C@@H](C(C)C)C(=O)N(C)[C@@H](CC(C)C)C(=O)N1)C(=O)N1CCCCC1 [DP-961] ([NMeβAla]I[NMeF][NMeL]T[Sar][NMeL]V[NMeL]D[NMeF][NMeF]I-Piperidide; lactam N-10) | 0.57 ×10⁻⁶ cm/s | 33 µL/min/mg | – | –
CC(C)C[C@H]1C(=O)N(C)[C@@H](Cc2ccccc2)C(=O)NCC(=O)N[C@H](C(=O)N2CCCCC2)CC(=O)N(C)CC(=O)N[C@@H]([C@@H](C)O)C(=O)N(C)[C@@H](C)C(=O)N[C@@H](COC(C)(C)C)C(=O)N(C)[C@@H](Cc2ccccc2)C(=O)N1C [DP-271] ([Sar]T[NMeA]S(tBu)[NMeF][NMeL][NMeF]GD-Piperidide; lactam N-9) | 10 ×10⁻⁶ cm/s | 38 µL/min/mg | – | –
CC(C)C[C@H]1C(=O)N(C)[C@@H](CC(C)C)C(=O)NC(C(C)O)C(=O)N(C)[C@@H](Cc2ccccc2)C(=O)NCC(=O)N(C)[C@@H](C(C)C)C(=O)N[C@@H](Cc2ccccc2)C(=O)NC(C(=O)N2CCCCC2)CC(=O)N(C)CCC(=O)N[C@@H](COC(C)(C)C)C(=O)N1C (stereo partly drawn) [DP-50] ([NMeβAla]S(tBu)[NMeL][NMeL][ξT][NMeF]G[NMeV]F[ξD]-Piperidide; lactam N-10) | – | – | 35 ×10⁻⁶ cm/s | 80 µL/min/mg
CC[C@H](C)[C@H](NC(=O)[C@H](CC(C)C)N(C)C(=O)[C@H](CC(C)C)NC(=O)[C@H](C)N(C)C(=O)[C@@H]1CC(=O)N[C@H](C(C)C)C(=O)N(C)[C@@H](CC(C)C)C(=O)N(C)[C@@H](CC(C)C)C(=O)N[C@@H](C)C(=O)N[C@@H](Cc2ccccc2)C(=O)N[C@@H]([C@@H](C)O)C(=O)N[C@@H](CC(C)C)C(=O)N(C)[C@@H](Cc2ccccc2)C(=O)N(C)[C@@H](CC(C)C)C(=O)N1)C(=O)N1CCCCC1 [DP-944] ([dV][NMeL][NMeL]AFTL[NMeF][NMeL]D[NMeA]L[NMeL]I-Piperidide; lactam N-10) | 0.1 ×10⁻⁶ cm/s | 20 µL/min/mg | – | –
CC(C)C[C@H]1C(=O)N(C)[C@@H](C(C)C)C(=O)N[C@@H](Cc2ccccc2)C(=O)N[C@H](C(=O)N(C)[C@@H](Cc2ccccc2)C(=O)N[C@@H](C)C(=O)N2CCCCC2)CC(=O)N(C)CCCC(=O)N[C@@H](C(C)C)C(=O)N(C)[C@@H](CC(C)C)C(=O)N[C@@H]([C@@H](C)O)C(=O)N(C)[C@@H](Cc2ccccc2)C(=O)NCC(=O)N1C [DP-372] ([NMeGABA]V[NMeL]T[NMeF]G[NMeL][NMeV]FD[NMeF]A-Piperidide; lactam N-10) | 42 ×10⁻⁶ cm/s | 78 µL/min/mg | – | –
CC[C@H](C)[C@H]1C(=O)N[C@@H](C)CC(=O)N(C)[C@H](C)C(=O)N(C)[C@@H](CC(C)C)C(=O)N[C@@H]([C@@H](C)O)C(=O)N(C)CC(=O)N[C@@H](COC(C)(C)C)C(=O)N(C)[C@@H](CC(C)C)C(=O)N1C [DP-826] (cyclo([NMeI][β3hA][dNMeA][NMeL]T[Sar]S(tBu)[NMeL])) | 30 ×10⁻⁶ cm/s | 213 µL/min/mg | – | –
CC[C@H](C)[C@H]1C(=O)N[C@@H](CC(C)C)C(=O)N(C)[C@@H](Cc2ccccc2)C(=O)N(C)[C@@H](CC(C)C)C(=O)N[C@@H]([C@@H](C)O)C(=O)N[C@@H](Cc2ccccc2)C(=O)N(C)[C@@H](C(C)C)C(=O)N[C@H](C(=O)N2CCCCC2)CC(=O)N(C)CC(=O)N[C@@H](C)C(=O)N1C [DP-145] ([Sar]A[NMeI]L[NMeF][NMeL]TF[NMeV]D-Piperidide; lactam N-10) | 29 ×10⁻⁶ cm/s | 232 µL/min/mg | – | –
